Measured values reported in paper PMC5676250, “Cholesterol-directed nanoparticle assemblies based on single amino acid peptide mutations activate cellular uptake and decrease tumor volume” (Chemical Science, 2017).
Read-outs that look alike come from different tables or passages of the source. Residues, ends and D or L forms follow the SMILES beside them. No end group written: not given here. *: point of attachment. X1 = CC(C)CCC[C@@H](C)[C@H]1CC[C@H]2[C@@H]3CC=C4C[C@@H](OCC(=O)*)CC[C@]4(C)[C@H]3CC[C@]12C

Legend:
[1] = system: SKOV-3 ovarian cancer cells; conditions: 24 h
Protocol: SKOV-3 cells were seeded in a 35 mm petri dish with a glass cover slide and allowed […]

SKOV-3 cells = assay: MTT assay of endocytosis inhibitors, 40 min; type: cell-based
Protocol: The cytotoxicity was tested using an MTT assay. […] A combined solution of 5 mg mL^-1 MTT/PBS (10 μL per well) was added to each well of the 96-well plate assay, and the cells were incubated for an additional 4 hours. Formazan extraction was performed with DMSO and quantified colorimetrically using a Synergy H4 Hybrid Microplate reader (Biotek, USA), which was used to measure the OD 490 nm (absorbance value). The following formula was used to calculate the viability of cell growth: viability (%) = (mean of absorbance value of treatment group-blank/mean absorbance value of control-blank) × 100 (MTT was purchased from Sigma-Aldrich).

in vitro = conditions: mouse, serum, pH 8.2
Protocol: A 1.5 mL mixture consisting of 30 μL mouse serum, 750 μL of peptides (1 mg mL^–1) and 1470 μL of digestion buffer (pH 8.2, 50 mM Tris, 20 mM CaCl2) was incubated at 37 °C for 16 h. Peptides treated with digestion buffer served as controls. Aliquots of 400 μL were withdrawn from the mixture and quenched with 400 μL of 1% trifluoroacetic acid (TFA) solution at 1 h, 8 h and 16 h. The quenched solution was analysed by reverse-phase high performance liquid chromatography (RP-HPLC). […]
to adhere overnight at 37 °C under 5% CO2. The cell culture medium was then removed and replaced with fresh McCoy’s 5A medium containing HAL-2 (10 μM) or HAL-C (10 μM) for 1 h. After the medium was removed and the cells were washed with PBS (1 mL × 3 times), 1 mL of PBS containing 4 μL staining solution was added for 1 h.
The cells were then washed with PBS (1 mL × 3 times) before imaging. Cell fluorescence images were obtained with a confocal laser scanning microscope. […] for Tubulin-Trakcer Red: excitation: 561 nm, emission collected: 570 -620 nm; Blue channel for DAPI: excitation: 405 nm, emission collected: 425 -475 nm. (Tubulin-Trakcer Red were purchased from Beyotime Biotechnology) […]
SKOV-3 cells were seeded in a 35 mm petri dish with a glass cover slide and allowed to adhere overnight at 37 °C under 5% CO2. […] Cell fluorescence images were obtained with a confocal laser scanning microscope. […]
A 1.5 mL mixture consisting of 30 μL serum, 750 μL of peptides (1 mg/mL) , and 1470 μL of digestion buffer (pH 8.2, 50 mM Tris, 20 mM CaCl 2 ) was incubated at 37 °C for 16 h. […] The quenched solution was analyzed by reverse -phase […]
In vivo antitumor studies: When the tumors reached a mean volume of 50 mm 3 after inoculation of SKOV-3 cells, the mice were randomly separated into three groups (N=3/group): (1) negative control (PBS); (2) HAL-2; (3) HAL-C. […] During therapy, the tumor volumes and body weights were measured every two days. Length and width of tumors were measured individually using a Vernier caliper. Tumor volumes were calculated using the following formula: tumor volume = length × width 2 × 0.5. […]

[2] = MTT, 40 min incubation, tested inhibitor concentrations (Fig. S17)

`CC[C@H](C)[C@H](NC(=O)[C@H](Cc1c[nH]cn1)NC(=O)[C@H](CCCCN)NC(=O)[C@H](CC(C)C)NC(=O)[C@H](CCCCNC(=O)CO[C@H]1CC[C@@]2(C)C(=CC[C@H]3[C@@H]4CC[C@H]([C@H](C)CCCC(C)C)[C@@]4(C)CC[C@@H]32)C1)NC(=O)[C@H](CO)NC(=O)[C@H](CCSC)NC(=O)[C@H](Cc1c[nH]c2ccccc12)NC(=O)[C@H](CCCCN)NC(=O)CN)C(=O)N[C@@H](CC(C)C)C(=O)N[C@@H](CCCCN)C(N)=O` [HAL-C] (H-GKWMSK(X1)LKHILK-NH2) showed an IC50 [1] of 12.7 ± 0.1 µM.

With methyl-beta cyclodextrin [MBCD] the “decrease of SKOV-3 cell viability” value (SKOV-3 cells) was “no significant effects”.

For `CN(C)CCCN1c2ccccc2Sc2ccc(Cl)cc21` [CPZ, chlorpromazine], the “decrease of SKOV-3 cell viability” value (SKOV-3 cells; [2]) was 38%.

With `N=C(N)NC(=O)c1nc(Cl)c(N)nc1N` [AM, amiloride] the “decrease of SKOV-3 cell viability” value (SKOV-3 cells; [2]) was 20%.

In the case of `CC[C@H](C)[C@H](NC(=O)[C@H](Cc1c[nH]cn1)NC(=O)[C@H](CCCCNC(=O)CO[C@H]1CC[C@@]2(C)C(=CC[C@H]3[C@@H]4CC[C@H]([C@H](C)CCCC(C)C)[C@@]4(C)CC[C@@H]32)C1)NC(=O)[C@H](CC(C)C)NC(=O)[C@H](CC(C)C)NC(=O)[C@H](CO)NC(=O)[C@H](CCSC)NC(=O)[C@H](Cc1c[nH]c2ccccc12)NC(=O)[C@H](CCCCN)NC(=O)CN)C(=O)N[C@@H](CC(C)C)C(=O)N[C@@H](CCCCN)C(N)=O` [HAL-B] (H-GKWMSLLK(X1)HILK-NH2), the IC50 [1] is reported as 24.6 ± 0.1 µM.

In the case of GKWMSLLKHILK-NH2 [HAL-2], the IC50 [1] is reported as 54.1 ± 0.5 µM, the remaining at 1 h (in vitro) is reported as 55.4% and the remaining at 8 h (in vitro) is reported as 29.4%. For the same compound, the remaining at 16 h (in vitro) was 11.2%.

In the case of `CSCC[C@H](NC(=O)[C@H](Cc1c[nH]c2ccccc12)NC(=O)[C@H](CCCCN)NC(=O)CN)C(=O)N[C@@H](CO)C(=O)N[C@@H](CC(C)C)C(=O)N[C@@H](CC(C)C)C(=O)N[C@@H](CCCCN)C(=O)N[C@@H](Cc1c[nH]cn1)C(=O)N[C@@H](CCCCNC(=O)CO[C@H]1CC[C@@]2(C)C(=CC[C@H]3[C@@H]4CC[C@H]([C@H](C)CCCC(C)C)[C@@]4(C)CC[C@@H]32)C1)C(=O)N[C@@H](CC(C)C)C(=O)N[C@@H](CCCCN)C(N)=O` [HAL-D] (H-GKWMSLLKHK(X1)LK-NH2), the IC50 [1] is reported as 16.2 ± 0.1 µM.
